Patent US8940291B2 (priority 2009, dated 2015)

Tested on: VSVΔ51-resistant CT26 colon carcinoma tumors
Design: species or system Balb/c mice
Details: mouse, in vivo, ip

## O=C1OC(c2ccccc2)C(Cl)=C1Cl (centres unmarked) [VSe1, 3,4-dichloro-5-phenyl-2,5-dihydrofuran-2-one]
  tumor growth, compound alone: neither VSe1 nor VSVΔ51 alone had a significant effect on tumor growth
  tumor progression, combination with VSVΔ51: significant delay in tumor progression
